Measured values published in patent US20190346463A1, “COMPOSITIONS AND METHOD FOR DETERMINING INSULIN RESISTANCE USING NON-ESTERIFIED FATTY ACID ANALYSIS” (The Penn State Research Foundation, priority 2016, published 2019).

Test: compartmental model of NEFA trafficking in response to a glucose challenge (frequently sampled intravenous glucose tolerance test, FAs measured by GC-MS)
Format: in vivo
Details: greater in IR (p=0.05); mean [95% CI] 55% [14, 76]
Text: In general the present disclosure involves analysis of NEFA trafficking by determining kinetic parameters that include, but are not necessarily limited to, the fractional rate of NEFA appearance (Ra), the rate of NEFA disappearance (kNEFA), threshold for glucose-induced suppression (tG), and IC50 for glucose inhibition of NEFA production (gIC50). Those skilled in the art will recognize that each of these parameters is known and can be determined using a variety of established approaches. In this regard the presence or absence, qualitative and quantitative amounts of, and kinetic parameters for one or more NEFAs in a biological sample can be sample determined using, for example, chromatographic methods, such as column chromatography, including High Performance Liquid Chromatography (HPLC) and gas chromatography, and spectroscopy methods including mass spectrometry, nuclear magnetic resonance spectroscopy, infrared spectroscopy, positron emission tomography and other approaches, such as those described in “A novel minimal model to describe NEFA kinetics following an intravenous glucose challenge” Ray C. Boston, Peter J. Moate, American Journal of Physiology—Regulatory, Integrative and Comparative Physiology Apr 2008, 294 (4) R1140-R1147. […]
This Example reflects an ancillary study. […] Six FAs were measured by GC-MS (myristic, palmitic, palmitoleic, stearic, oleic, and linoleic acids). […]

SMILES: CCCCCCCCCCCCCCCCCC(=O)O [stearate, stearic acid]
- kNEFA in IR versus healthy subjects: 55%
